In patent US11154569B2, “Ruthenium μ-nitrido complexes and their use as calcium uptake inhibitors” (CORNELL UNIVERSITY, priority 2018, dated 2021):
Numbering of substitutions follows the chain as printed.

Key:
human MCU S259A mutant = biological target: T1, human MCU S259A mutant (Homo sapiens, UniProt Q8NE86, S259A); assay: mCa2+ uptake in permeabilized HEK293T cells expressing MCU S259A mutant; format: cell-based; details: C-2 10 nM, Ru360 500 nM
T1 construct: stably expressing flag-tagged full-length human wild type MCU (MCU^WT) or the mutant S259A (MCU^S259A); Flag; expressed in transfected cells
T1 sequence (Q8NE86 51-351 S259A): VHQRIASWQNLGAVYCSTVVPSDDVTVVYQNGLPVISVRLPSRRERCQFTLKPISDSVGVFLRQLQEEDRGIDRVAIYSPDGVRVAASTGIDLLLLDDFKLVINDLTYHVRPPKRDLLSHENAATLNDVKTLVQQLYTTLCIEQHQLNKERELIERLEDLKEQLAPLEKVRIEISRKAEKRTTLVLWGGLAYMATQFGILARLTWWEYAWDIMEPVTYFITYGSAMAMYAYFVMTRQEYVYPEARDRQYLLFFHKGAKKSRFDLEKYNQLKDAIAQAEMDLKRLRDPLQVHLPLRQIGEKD
T1 sequence (Q9H4I9 48-107 partner limits assumed): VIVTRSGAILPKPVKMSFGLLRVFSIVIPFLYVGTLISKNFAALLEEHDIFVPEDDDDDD
Description: (§1) An equal number of IHEK293T (6×10^6 cells) were washed in Ca^2+ free PBS, pH 7.4, resuspended and permeabilized with 40 μg/ml digitonin in 1.5 ml of intracellular medium (ICM) composed of 120 mM KCl, 10 mM NaCl, 1 mM K—H2PO4, 20 mM HE PES-Tris, pH 7.2 and 2 μM thapsigargin to block the SERCA pump. All measurements were performed in the presence of 2 mM succinate. The permeabilized cells were loaded with JC-1 (800 nM) and Fura2-FF (0.5 μM), respectively. Fluorescence was monitored in a multi-wavelength excitation dual-wavelength emission fluorimeter. [Ca^2+]out is represented as the excitation ratio (340 nm/380 nm) of Fura2-FF/FA fluorescence and ΔΨm as the ratio of the fluorescence of J-aggregate (570 nm excitation/595 nm emission) and monomer (490 nm excitation/535 nm emission) forms of JC-1. A series of extra-mitochondrial Ca^2+ bolus (20 μM) was added and mitochondrial uncoupler, CCCP (2 jμM), were added at the indicated time points. All of the experiments were performed at 37° C. with constant stirring.
Having observed the high potency of C-2 compared to Ru360, the mechanism of action of C-2 was next investigated. […] HIEK293T cells stably expressing flag-tagged full-length human wild type MCU (MCU^WT) or the mutant S259A (MCU^S259A) were permeabilized and mCa^2+ uptake was measured as above.

MCU C97A mutant = biological target: T2, MCU C97A mutant (Homo sapiens, UniProt Q8NE86, C97A); assay: mCa2+ uptake in permeabilized HEK293T cells expressing MCU C97A mutant; format: cell-based; details: C-2 10 nM, Ru360 500 nM
T2 construct: stably expressing Flag-tagged full-length wild-type MCU (MCU^WT) and the mutant C97A (MCU^C97A); Flag; expressed in transfected cells
T2 sequence (Q8NE86 51-351 C97A): T1 sequence (Q8NE86 51-351 S259A) with C47A, A209S
T2 sequence (Q9H4I9 48-107 partner limits assumed): T1 sequence (Q9H4I9 48-107 partner limits assumed)
Description: as §1
To determine if C-2 interacts with the NTD, HEK293T cells stably expressing Flag-tagged full-length wild-type MCU (MCU^WT) and the mutant C97A (MCU^C97A) were permeabilized, and mCa^2+ uptake was measured as above.

[1] = system: mitochondria isolated from NRVMs; assay: Mitochondrial swelling assay (Ca2+-induced mPTP opening); format: cell-based, rat; details: 50 μM compound, Ca2+ 250 μM
Description: NRVMs were homogenized in ice-cold mitochondrial isolation buffer (10 mM sucrose, 200 mM mannitol, 5 mM HEPES, and 1 mM EGTA, pH 7.4) containing 1 mg/mL fatty acid-free bovine serum albumin. The homogenate was centrifuged for 10 minutes at 1000×g, and the supernatant was centrifuged again at 14,000×g for 10 minutes. The mitochondrial pellets were washed twice and centrifuged at 11,200×g. The isolated mitochondria (1 mg protein) were added to 0.2 mL of buffer mitochondrial swelling buffer (70 mM sucrose, 230 mM mannitol, 3 mM HEPES, 2 mM Trisphosphate, 5 mM succinate). Mitochondrial swelling was measured by decrease in absorbance at 540 nm after addition of Ca^2+ (250 μM). To study the protective effect of C-2 and Ru360, mitochondrial swelling assay was performed in mitochondria treated with or without the compounds (50 μM).
Additionally, the swelling of mitochondria isolated from NRVMs subjected to H/R injury in the absence or presence of C-2 or Ru360 was monitored. After baseline measurement of the absorbance at 600 nm, a single bolus of Ca^2+ (250 μM) was added to induce mPTP opening. As known, the decrease in mitochondrial absorbance indicates mitochondrial swelling and subsequent mPTP opening.

SMILES | effect of MCU S259A mutation on MCU inhibition compared to MCU WT cells (human MCU S259A mutant) | effect of MCU C97A mutation on MCU inhibition compared to MCU WT cells (MCU C97A mutant) | mitochondrial swelling (decrease in absorbance after Ca2+ addition) [1]
N.N.N.N.N.N.N.N.[Cl-].[Cl-].[N-3].[Ru+4].[Ru+4] [C-2, [Ru2(μ-N)(NH3)8Cl2]Cl3] | almost no change in the inhibitory activity | significantly reduced MCU inhibitory activity | no decrease in absorbance was observed
N.N.N.N.N.N.N.N.O=C[O-].O=C[O-].[O-2].[Ru+3].[Ru+4] [Ru360, reference compound] | partial resistance to Ru360 inhibition | almost no effect on the activity | no decrease in absorbance was observed
